Assay results published in ChEMBL document CHEMBL5725324, “Amide compounds for treatment of complement mediated disorders” (2017).

Target: Complement factor D (Homo sapiens, UniProt P00746)
Experiment: Human Factor D Assay: Human factor D (purified from human serum, Complement Technology, Inc.) at 80 nM final concentration is incubated with test compound at various concentrations for 5 minutes at room temperature in 50 mM Tris, 1M NaCl, pH 7.5. A synthetic substrate Z-L-Lys-SBzl and DTNB (Ellman's reagent) are added to final concentrations of 100 μM each. The increase in color is recorded at OD405 nm in a microplate in kinetic mode over 30 minutes with 30 second time points in a […]. IC50 values are calculated by non-linear regression from the percentage of inhibition of complement factor D activity as a function of test compound concentration.

Complement factor D, sequence (P00746 whole entry): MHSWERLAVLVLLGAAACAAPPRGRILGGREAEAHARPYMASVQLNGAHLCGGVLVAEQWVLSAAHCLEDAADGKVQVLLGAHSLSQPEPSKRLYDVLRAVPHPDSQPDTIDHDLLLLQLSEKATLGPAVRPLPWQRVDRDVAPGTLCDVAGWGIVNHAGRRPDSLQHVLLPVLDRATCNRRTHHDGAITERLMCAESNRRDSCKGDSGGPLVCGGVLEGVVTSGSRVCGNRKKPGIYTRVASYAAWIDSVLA

Q: With CC(=O)c1cn(CC(=O)N2[C@@H]3C[C@@H]3C[C@H]2C(=O)NCc2cccc(Cl)c2F)c2ccc(NC(=O)N3CCCC3)cc12 as the molecule, how does the IC50 read?
A: < 1 µM
